Literature values in US11166911B2, “Parenteral dosage form of amiodarone” (SUN PHARMACEUTICAL INDUSTRIES LIMITED, priority 2016, dated 2021).

Conditions: Parmar et al. 1997

Which “Degradation upon storage at higher temperatures” value does the source give for `CCCCc1oc2ccccc2c1C(=O)c1cc(I)c(OCCN(CC)CC)c(I)c1` [Amidarone] here?
Its value is “degrade significantly”.
